Several values for one entry are separate records, joined by “and”; a condition that tells them apart may be missing. Equal values may be shown once.
Tests used:
FlaA1 [1] = target: T1, FlaA1 (Helicobacter pylori, UniProt O25511); assay: Substrate specificity of FlaA1 (catalysis with related sugar-nucleotides); format: biochemical
T1 construct: hexahistidine tag (N); made in house; host or cells: E. coli BL21(DE3)pLysS (pET23 derivative)

FlaA1 [2] = target: T1, FlaA1; assay: DMAB assay: enzymatic conversion of UDP-GlcNAc and UDP-GalNAc by FlaA1; format: biochemical; conditions: incubation with FlaA1, 37° C., 20 mM Tris pH 7, 1 mM NAD+
Experimental: Reactions were performed with a total reaction volume of 35 μl at 37° C. in 20 mM Tris pH 7 in the presence of 1.5 mM substrate and 1 mM NAD^+. The reactions were stopped by acid hydrolysis of the UDP moiety of the substrate. For this purpose, the samples were acidified to pH 2 by addition of 7 μl of HCl 1 N, boiled for 6 min, and neutralised by addition of 7 μl of NaOH 1 N. The spectrophotometric quantification of GalNAc and GlcNAc using DMAB was performed as described by Creuzenet et al. 2000. Briefly summarized, 100 μl of 0.2 M sodium tetraborate pH 9.1 were added to 50 μl of quenched and neutralised enzymatic reactions and boiled immediately for 3 min. 40 μl of this mixture were transferred to a microtitration plate and 200 μl of DMAB reagent (1% in glacial acetic acid/HCl 99/1 v/v) were added. After incubation for 30 min at 37° C., the OD595 nm was recorded using a microplate reader. The assay was done in duplicate for each reaction tested. Standard curves were prepared using UDP-GlcNAc and UDP-GalNAc that were subjected to acid hydrolysis in the same conditions as described above.

FlaA1 [3] = target: T1, FlaA1; assay: Capillary electrophoresis analysis of reaction products and kinetic parameters of FlaA1; format: biochemical; conditions: for reaction products identified by capillary electrophoresis: sugar-nucleotide used as substrate of FlaA1
Experimental: The same reactions as above were prepared for capillary analysis using varying amounts of enzyme (440 or 54 ng) and 1 mM NAD^+ or not. The reaction mix was incubated for different reaction times. The specific conditions are indicated above. After incubation at 37° C. for the required amount of time, the reactions were quenched by boiling the sample for 6 min. Time course studies were performed with final sugar-nucleotide concentrations of 0.1 and 1.5 mM without NAD^+. Samples were quenched every 15 minutes for 2 h. […] Reactions were also performed using varying buffers such as 20 mM sodium phosphate or bis-tris-propane at pH 7, or 20 mM sodium acetate pH 6.5 and processed for CE analysis as described above.
Capillary electrophoresis (CE) analysis were performed using a P/ACE 5000 system (Beckman, Fullerton, Calif.) with UV detection as described before (Creuzenet et al. 2000). Briefly summarised, the running buffer was 25 mM sodium tetraborate pH 9.4. The capillary was bare silica 75 μm×57 cm, with a detector at 50 cm. The capillary was conditioned before each run by washing with 0.2 M NaOH for 2 min, water for 2 min, and running buffer for 2 min. Samples were introduced by pressure injection for 4 s and the separation was performed at 22 kV. Peak integration was done using the Beckman P/ACE Station software. Kinetic parameters were calculated by linear regression from Eadie-Hofstee plots.
The same reactions as above were prepared for capillary electrophoresis analysis and were quenched by boiling for 6 minutes without prior acidification. Capillary electrophoresis (CE) analysis was performed as described earlier (Creuzenet et al. 2000).

C4 epimerase WbpP = C4 epimerase WbpP (Pseudomonas aeruginosa, UniProt Q8KN66); conditions: Creuzenet et al. 2000; cited from earlier work
Sequence of C4 epimerase WbpP (Q8KN66 whole entry): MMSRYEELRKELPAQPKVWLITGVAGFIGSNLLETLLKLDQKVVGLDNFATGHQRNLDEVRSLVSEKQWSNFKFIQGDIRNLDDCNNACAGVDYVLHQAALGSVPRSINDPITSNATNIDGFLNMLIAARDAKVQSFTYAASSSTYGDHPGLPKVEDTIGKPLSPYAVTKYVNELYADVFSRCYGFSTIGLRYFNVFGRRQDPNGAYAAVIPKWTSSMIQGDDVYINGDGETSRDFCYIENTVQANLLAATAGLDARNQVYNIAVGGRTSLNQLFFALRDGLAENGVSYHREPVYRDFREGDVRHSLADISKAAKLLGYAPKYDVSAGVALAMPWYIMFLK

T1 sequence (O25511 whole entry): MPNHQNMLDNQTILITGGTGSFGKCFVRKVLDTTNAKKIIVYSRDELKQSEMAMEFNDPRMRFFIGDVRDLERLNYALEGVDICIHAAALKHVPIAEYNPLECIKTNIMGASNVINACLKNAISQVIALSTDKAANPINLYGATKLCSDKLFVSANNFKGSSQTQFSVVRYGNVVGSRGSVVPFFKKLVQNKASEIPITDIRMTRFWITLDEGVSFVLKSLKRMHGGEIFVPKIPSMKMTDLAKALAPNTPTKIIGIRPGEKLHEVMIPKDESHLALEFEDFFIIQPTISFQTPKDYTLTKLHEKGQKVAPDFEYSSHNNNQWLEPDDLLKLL

| SMILES | catalysis by FlaA1 (substrate specificity) (FlaA1 [1]) | substrate conversion (decrease in OD595nm, DMAB assay) (FlaA1 [2]) [%] | reaction products identified by capillary electrophoresis (FlaA1 [3]) | kcat (FlaA1 [3]; pH 7, 37° C., 12.8 pmol enzyme) | Km (FlaA1 [3]; pH 7, 37° C., 440 ng fresh enzyme, no NAD+, 20 min) [µM] | Vmax (FlaA1 [3]; pH 7, 37° C., 440 ng fresh enzyme, no NAD+, 20 min, total substrate conversion) | Km (C4 epimerase WbpP) [µM] |
| --- | --- | --- | --- | --- | --- | --- | --- |
| Nc1nc2c(ncn2[C@@H]2O[C@H](COP(=O)(O)OP(=O)(O)O[C@H]3O[C@H](CO)[C@@H](O)[C@H](O)[C@@H]3O)[C@@H](O)[C@H]2O)c(=O)[nH]1 [GDP-mannose] | Absence of catalysis |  |  |  |  |  |  |
| CC(=O)N[C@H]1[C@@H](OP(=O)(O)OP(=O)(O)OC[C@H]2O[C@@H](n3ccc(=O)[nH]c3=O)[C@H](O)[C@@H]2O)O[C@H](CO)[C@H](O)[C@@H]1O [UDP-GalNAc, UDP-N-acetylgalactosamine] | can not proceed to catalysis | < 5 | no reaction products could be identified |  |  |  |  |
| CC(=O)N[C@H]1[C@@H](OP(=O)(O)OP(=O)(O)OC[C@H]2O[C@@H](n3ccc(=O)[nH]c3=O)[C@H](O)[C@@H]2O)O[C@H](CO)[C@@H](O)[C@@H]1O [UDP-GlcNAc, UDP-N-acetylglucosamine] |  | ≤ 55 | two reaction products were identified | 0.085 s⁻¹ and 0.085 ± 0.0067 s⁻¹ | 159 | 0.065 nmol/min and 0.065 ± 0.006 nmol/min | 220 |
| Cc1cn([C@H]2C[C@H](O)[C@@H](COP(=O)(O)OP(=O)(O)OC3O[C@H](CO)[C@@H](O)[C@H](O)[C@H]3O)O2)c(=O)[nH]c1=O (stereo partly drawn) [dTDP-D-glucose] | Absence of catalysis |  |  |  |  |  |  |
